According to patent US20170071944A1, “MODULATORS OF TOLL-LIKE RECEPTORS FOR THE TREATMENT OF HIV” (Gilead Sciences, Inc., priority 2015, published 2017):
Values joined by “and” are separate entries in the source; they are usually repeats but may differ in a detail not shown here. Identical values can stand only once.

Assays:
[1] = system: serum cytokines and chemokines associated with TLR8 activation; assay: Induction of cytokines and chemokines in Rhesus macaques (serum, Luminex); assay type: in vivo
Description: The TLR8 modulator of Example 65 was formulated in 2% ethanol, 40% polyethylene glycol 300, and 58% 0.01 N hydrochloric acid. Oral solutions of formulations were prepared by dissolving a sufficient amount of the compound in the 2% ethanol, 40% polyethylene glycol 300, and 58% 0.01 N hydrochloric acid vehicle to arrive at 0.5, 1.5, or 5 mg/ml of Example 65. Rhesus macaques were dosed orally with 1.2 to 2 mls/kg to achieve dose levels of 1, 3, 6, or 10 mg/kg Example 65. Blood samples were collected at 2, 4, 8, 12, 24 and 48 hours postdose (FIG. 5) and allowed to clot under ambient conditions prior to centrifugation to obtain serum. The indicated cytokines and chemokines were quantified in serum with a multiplexed Luminex® assay following the manufacturer's instructions (Life Technologies). […] At 10 and 6 mg/kg, IL-12, IL-1RA and MCP-1 peaked near 10 ng/ml and IL-6 peaked at 1 ng/ml.

[2] = system: HIV-specific polyfunctional CD8 T cells; assay: Induced HIV-specific polyfunctional CD8+ T cells in PBMC cultures from HIV-1 infected subjects on cART; assay type: cell-based, human; settings: for Median HIV-specific polyfunctional CD8 T cells (% proliferating CD8+ cells double positive for IFN-γ and TNF-α): 5 subjects, vehicle 0.73% (Example 15 group), 0.13% (Example 98 group)
[3] = system: HIV-1 expression in PBMC cultures from HIV-1 infected subjects on cART; assay: Induced HIV-1 expression in PBMC cultures from HIV-1 infected subjects on cART (HIV-1 RNA in culture supernatant, COBAS TaqMan); assay type: cell-based, human; settings: for Fold HIV-1 Activation, Geometric Mean with ≧2-Fold-Activation / Fold HIV-1 Activation, Range with ≧2-Fold-Activation: N = 5 subjects
Description: In some experiments, IL-15, the TLR8 modulating compound of Example 15 or the combination of IL-15 and Example 15 were used at the indicated concentrations (Table 4). The cultures were maintained in the presence of antivirals (elvitegravir and efavirenz at 100 nM each) to prevent viral spread and amplification in order to measure the quantity of virus produced (latency reversal) by the TLR8 modulating compounds. At the end of the incubation period, cell-free culture supernatants were harvested and HIV-1 RNA levels were quantified by the COBAS® AmpliPrep/COBAS®TaqMan HIV-1 Test, v2.0 (Roche).
In each table, fold-activation is calculated as a ratio of HIV-1 RNA copies per ml of cell culture supernatants from TLR8 agonist treated samples and DMSO treated controls. Geometric mean fold-activation from three independent incubation samples for each condition of each subject's PBMCs.
To assess if the latency reversal induced by TLR8 agonism could further potentiate latency reversal by a separate mechanisms, we treated cells as described above with IL-15, Example 15, or a combination of IL-15 and Example 15 (Table 4).

[4] = Example 15 1000 nM and/or IL-15 1 nM, subjects 205-210

Question: With CCCC[C@](C)(CNC(C)=O)Nc1nc(N)nc2cc(Cl)cnc12 [Example 65] as the compound, how does the “Induction of cytokines associated with TLR8 activation, including IL-12, IL-6, IL-1RA and MCP-1” value ([1]; oral, 1, 3, 6, or 10 mg/kg) read?
Answer: induced in a dose-dependent manner

Question: What about the “Time of peak cytokine concentrations post-dose” value ([1]; oral, 1, 3, 6, or 10 mg/kg) of the same compound?
Answer: 2 h

Question: And the “Serum IL-1RA peak” value ([1]; oral, 10 and 6 mg/kg)?
Answer: ~10 ng/mL

Question: What about the “Serum IL-6 peak” value ([1]; oral, 10 and 6 mg/kg) of the same compound?
Answer: 1 ng/mL

Question: And the “Serum IL-12 peak” value ([1]; oral, 10 and 6 mg/kg)?
Answer: ~10 ng/mL

Question: And the “Serum MCP-1 peak” value ([1]; oral, 10 and 6 mg/kg)?
Answer: ~10 ng/mL

Question: CCCCC(C)(CO)Nc1nc(N)nc2cc(F)cnc12 (stereo not drawn) [Example 98] was tested. Which “Patients in whom increases were seen” value ([2]; 100 nM) did it give?
Answer: 4 of 5

Question: And the “Median HIV-specific polyfunctional CD8 T cells (% proliferating CD8+ cells double positive for IFN-γ and TNF-α)” value ([2]; 100 nM with HIV peptide pool)?
Answer: 0.93%

Question: And the “Patients in whom increases were seen” value ([2]; 1000 nM)?
Answer: 4 of 5

Question: What about the “Increase of median HIV-specific polyfunctional CD8 T cells” value ([2]; 1000 nM combined with the HIV specific peptide pool, p<0.05) of the same compound?
Answer: 7.1 fold

Question: And the “Median HIV-specific polyfunctional CD8 T cells (% proliferating CD8+ cells double positive for IFN-γ and TNF-α)” value ([2]; 1000 nM with HIV peptide pool)?
Answer: 0.92%

Question: Which “Fold HIV-1 Activation” value ([3]; 156 nM, 4 days, individual subjects 151-155, vs DMSO) does the source give for CCC[C@@H](CO)Nc1nc(N)nc2cc(F)c(F)cc12 [Example 119, (S)-2-((2-amino-6,7-difluoroquinazolin-4-yl)amino)pentan-1-ol, reference compound] here?
Answer: 3.6 fold and 4.9 fold and 0.4 fold

Question: And the “Fold HIV-1 Activation, Geometric Mean with ≧2-Fold-Activation” value ([3]; 156 nM)?
Answer: 4.2 fold

Question: What about the “Fold HIV-1 Activation, Range with ≧2-Fold-Activation” value (shortened to “Fold HIV-1 Activation, Range”) ([3]; 156 nM) of the same compound?
Answer: 3.6-4.9 fold

Question: And the “N with ≧2-Fold-Activation” value ([3]; 156 nM, subjects 151-155)?
Answer: 2 of 3

Question: What about the “N with ≧2-Fold-Activation (%)” value ([3]; 156 nM, subjects 151-155) of the same compound?
Answer: (67) %

Question: What about the “Fold HIV-1 Activation” value ([3]; 625 nM, 4 days, individual subjects 151-155, vs DMSO) of the same compound?
Answer: 3.4 fold and 4.1 fold and 4.8 fold and 0.3 fold and 0.5 fold

Question: What about the “Fold HIV-1 Activation, Geometric Mean with ≧2-Fold-Activation” value ([3]; 625 nM) of the same compound?
Answer: 4.1 fold

Question: And the “Fold HIV-1 Activation, Range” value ([3]; 625 nM)?
Answer: 3.4-4.8 fold

Question: What about the “N with ≧2-Fold-Activation” value ([3]; 625 nM, subjects 151-155) of the same compound?
Answer: 3 of 5

Question: What about the “N with ≧2-Fold-Activation (%)” value ([3]; 625 nM, subjects 151-155) of the same compound?
Answer: (60) %

Question: And the “Fold HIV-1 Activation” value ([3]; 2,500 nM, 4 days, individual subjects 151-155, vs DMSO)?
Answer: 4.1 fold and 4.2 fold and 3.2 fold and 5.2 fold and 2.2 fold

Question: And the “Fold HIV-1 Activation, Geometric Mean with ≧2-Fold-Activation” value ([3]; 2,500 nM)?
Answer: 3.6 fold

Question: And the “Fold HIV-1 Activation, Range” value ([3]; 2,500 nM)?
Answer: 2.2-5.2 fold

Question: What about the “N with ≧2-Fold-Activation” value ([3]; 2,500 nM, subjects 151-155) of the same compound?
Answer: 5 of 5

Question: And the “N with ≧2-Fold-Activation (%)” value ([3]; 2,500 nM, subjects 151-155)?
Answer: (100) %

Question: And the “Fold HIV-1 Activation, Geometric Mean with ≧2-Fold-Activation” value ([3]; 156, 625, or 2500 nM)?
Answer: 4.1 fold

Question: And the “Fold HIV-1 Activation, Range” value ([3]; 156, 625, or 2500 nM)?
Answer: 2.2-5.2 fold

Question: And the “N with ≧2-Fold-Activation” value ([3]; 156, 625, or 2500 nM, subjects 151-155)?
Answer: 5 out of 5 and 5 of 5

Question: Which results are given for “IL-15: interleukin IL-15, used at 1 nM as a separate latency reversal mechanism”?
Answer: Fold HIV-1 Activation, Geometric Mean ([3]; Example 15 1000 nM and/or IL-15 1 nM, N = 6 subjects): 2.9 fold; Fold HIV-1 Activation ([3]; Example 15 1000 nM and/or IL-15 1 nM, individual subjects 205-210, vs DMSO): 2.6 fold and 3.3 fold and 4.4 fold and 6.3 fold and 1.4 fold and 1.6 fold; N with ≧2-Fold-Activation [3, 4]: 4 of 6; N with ≧2-Fold-Activation (%) [3, 4]: 66%
